The values below come from ChEMBL document CHEMBL1129734, “Synthesis and structure-activity relationships of a new model of arylpiperazines. 1. 2-[[4-(o-methoxyphenyl)piperazin-1-yl]methyl]-1, 3-dioxoperhydroimidazo[1,5-alpha]pyridine: a selective 5-HT1A receptor agonist” (J Med Chem, 1996).

Broadly, the Ki is the dissociation constant of the complex between target and ligand, obtained from inhibition or displacement. Low readings indicate a stronger hold on the target, high ones a looser hold on the target.

A value given as a limit tells only on which side of the number the result lay.

Test [1] concerns the target T1, 5-hydroxytryptamine receptor 1A (Rattus norvegicus, UniProt P19327).
T1 sequence (P19327 whole entry): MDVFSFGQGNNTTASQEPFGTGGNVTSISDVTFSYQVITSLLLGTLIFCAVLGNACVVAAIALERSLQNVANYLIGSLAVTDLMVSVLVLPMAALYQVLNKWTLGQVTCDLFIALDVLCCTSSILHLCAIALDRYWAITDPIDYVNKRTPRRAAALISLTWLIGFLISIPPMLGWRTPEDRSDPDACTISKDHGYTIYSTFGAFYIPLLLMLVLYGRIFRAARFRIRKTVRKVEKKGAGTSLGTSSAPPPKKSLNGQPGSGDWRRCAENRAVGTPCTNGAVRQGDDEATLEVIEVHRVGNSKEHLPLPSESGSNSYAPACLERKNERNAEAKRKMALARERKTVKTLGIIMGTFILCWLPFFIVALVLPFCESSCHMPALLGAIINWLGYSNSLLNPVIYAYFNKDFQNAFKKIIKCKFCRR
Briefly: Binding affinity towards rat 5-hydroxytryptamine 1A receptor using [3H]8-OH-DPAT radioligand.

The next test addresses D(2) dopamine receptor (Rattus norvegicus, UniProt P61169). Put plainly: Binding affinity towards dopamine receptor D2 using [3H]-raclopride radioligand.
Test [2] has as its target T2, Adrenergic receptor alpha-1 (Rattus norvegicus, UniProt P15823+P23944+P43140).
T2 sequence (P15823 whole entry): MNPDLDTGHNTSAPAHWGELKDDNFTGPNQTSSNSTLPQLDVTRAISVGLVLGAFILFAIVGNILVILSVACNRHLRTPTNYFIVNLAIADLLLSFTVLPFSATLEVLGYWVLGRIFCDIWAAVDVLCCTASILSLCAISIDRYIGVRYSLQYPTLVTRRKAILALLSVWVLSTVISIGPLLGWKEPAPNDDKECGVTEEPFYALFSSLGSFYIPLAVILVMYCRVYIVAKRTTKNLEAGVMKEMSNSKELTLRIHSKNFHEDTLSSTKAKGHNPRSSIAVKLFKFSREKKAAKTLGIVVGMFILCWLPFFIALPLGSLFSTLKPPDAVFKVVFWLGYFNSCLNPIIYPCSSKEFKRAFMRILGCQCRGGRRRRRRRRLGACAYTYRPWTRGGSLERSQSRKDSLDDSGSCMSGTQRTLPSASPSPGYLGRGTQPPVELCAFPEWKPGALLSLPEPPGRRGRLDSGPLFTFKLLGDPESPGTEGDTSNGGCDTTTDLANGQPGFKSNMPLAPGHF
T2 sequence (P23944 whole entry): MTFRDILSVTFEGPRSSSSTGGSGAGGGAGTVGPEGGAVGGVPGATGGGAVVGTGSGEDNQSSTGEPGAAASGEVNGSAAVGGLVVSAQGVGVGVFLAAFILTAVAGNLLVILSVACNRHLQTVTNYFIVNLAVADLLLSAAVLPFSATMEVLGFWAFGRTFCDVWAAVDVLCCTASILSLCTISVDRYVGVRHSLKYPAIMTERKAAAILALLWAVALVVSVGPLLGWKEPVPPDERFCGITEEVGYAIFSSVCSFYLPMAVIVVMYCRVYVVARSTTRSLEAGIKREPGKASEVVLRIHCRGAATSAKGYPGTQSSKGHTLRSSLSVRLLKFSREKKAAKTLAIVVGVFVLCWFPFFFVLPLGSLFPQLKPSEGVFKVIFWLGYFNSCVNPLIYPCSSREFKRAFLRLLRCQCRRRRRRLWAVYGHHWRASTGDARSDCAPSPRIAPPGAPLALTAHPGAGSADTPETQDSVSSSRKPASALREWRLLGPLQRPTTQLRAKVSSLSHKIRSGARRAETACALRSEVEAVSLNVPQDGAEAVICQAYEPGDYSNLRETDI
T2 sequence (P43140 whole entry): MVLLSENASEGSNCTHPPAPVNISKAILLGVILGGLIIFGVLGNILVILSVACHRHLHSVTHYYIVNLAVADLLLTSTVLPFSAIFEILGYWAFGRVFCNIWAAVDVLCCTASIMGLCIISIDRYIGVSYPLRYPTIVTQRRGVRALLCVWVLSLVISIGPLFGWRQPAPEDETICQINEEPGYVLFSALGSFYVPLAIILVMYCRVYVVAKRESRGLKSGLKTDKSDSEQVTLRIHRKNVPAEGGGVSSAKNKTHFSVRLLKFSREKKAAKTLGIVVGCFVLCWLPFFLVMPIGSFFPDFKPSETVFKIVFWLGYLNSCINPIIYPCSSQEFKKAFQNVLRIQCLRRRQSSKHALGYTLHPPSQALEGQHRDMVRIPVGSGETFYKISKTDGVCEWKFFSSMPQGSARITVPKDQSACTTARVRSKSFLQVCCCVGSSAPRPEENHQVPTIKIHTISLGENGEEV
Briefly: Binding affinity towards alpha-1 adrenergic receptor using [3H]prazosin radioligand. It counts as protein assay.

Sequence of D(2) dopamine receptor (P61169 whole entry): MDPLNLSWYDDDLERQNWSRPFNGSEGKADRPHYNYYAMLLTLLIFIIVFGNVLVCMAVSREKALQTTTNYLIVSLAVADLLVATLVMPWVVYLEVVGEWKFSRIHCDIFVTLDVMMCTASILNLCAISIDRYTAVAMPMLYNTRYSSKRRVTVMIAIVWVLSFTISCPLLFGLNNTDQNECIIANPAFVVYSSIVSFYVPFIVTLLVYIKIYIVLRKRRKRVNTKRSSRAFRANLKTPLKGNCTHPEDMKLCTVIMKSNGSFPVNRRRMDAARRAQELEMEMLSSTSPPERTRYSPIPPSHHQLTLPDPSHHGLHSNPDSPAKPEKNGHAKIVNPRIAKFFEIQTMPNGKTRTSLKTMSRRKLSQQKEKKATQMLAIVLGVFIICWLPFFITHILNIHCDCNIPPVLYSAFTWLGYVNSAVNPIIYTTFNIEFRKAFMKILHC

For the compound `O=C1C2CCCCN2C(=O)N1CCCCN1CCN(c2ccc(F)cc2)CC1` (centres undefined), the values for the Ki (in test [1]; on D(2) dopamine receptor; in test [2]) were 57.9 nM, 615 nM and 10.4 nM, respectively.
With `O=C1C2CCCN2C(=O)N1CCCCN1CCN(c2ccc(F)cc2)CC1` (centres undefined), the Ki was 89.9 nM in test [1], over 1000 nM on D(2) dopamine receptor and 47.2 nM in test [2].
As to `O=C1C2CCCCN2C(=O)N1CCCCN1CCN(c2ccc([N+](=O)[O-])cc2)CC1` (centres undefined), the Ki (in test [1]; on D(2) dopamine receptor; in test [2]) was over 1000 nM each time.
Regarding `O=C1C2CCCCN2C(=O)N1CN1CCN(c2cccc(C(F)(F)F)c2)CC1` (centres undefined), the Ki in test [1] is 78.6 nM; at D(2) dopamine receptor it was over 1000 nM; in test [2], over 1000 nM.
Turning to `O=C1C2CCCCN2C(=O)N1CCCN1CCN(c2ccc(F)cc2)CC1` (centres undefined), the figures for the Ki (in test [1]; on D(2) dopamine receptor; in test [2]) were 598 nM, over 1000 nM and 25.8 nM, respectively.
As for `COc1ccccc1N1CCN(CCCN2C(=O)C3CCCN3C2=O)CC1` (centres undefined), the Ki in test [1] was 4.4 nM; at D(2) dopamine receptor it was over 1000 nM; in test [2], 3.1 nM.
In the case of `O=C1C2CCCN2C(=O)N1CCCCN1CCN(c2ccc([N+](=O)[O-])cc2)CC1` (centres undefined), the Ki was over 1000 nM in test [1], over 1000 nM on D(2) dopamine receptor and 247 nM in test [2].
Take `O=C1C2CCCN2C(=O)N1CCCN1CCN(c2cccc(Cl)c2)CC1` (centres undefined): the figures for the Ki (in test [1]; at D(2) dopamine receptor; in test [2]) were 55.9 nM, over 1000 nM and 21.6 nM, respectively.
As to `O=C1C2CCCCN2C(=O)N1CN1CCN(c2ccc(F)cc2)CC1` (centres undefined), the Ki in test [1] was 444 nM; on D(2) dopamine receptor, over 10000 nM; in test [2] it was 869 nM.
In the case of `O=C1C2CCCCN2C(=O)N1CCN1CCN(c2cccc(Cl)c2)CC1` (centres undefined), the Ki in test [1] is 128 nM; on D(2) dopamine receptor it was over 1000 nM; in test [2], 375 nM.
As for `O=C1C2CCCN2C(=O)N1CN1CCN(c2cccc(Cl)c2)CC1` (centres undefined), the figures for the inhibitory constant (Ki) (in test [1]; on D(2) dopamine receptor; in test [2]) were 58.4 nM, over 10000 nM and 292 nM, respectively.
Turning to `COc1ccccc1N1CCN(CCCCN2C(=O)c3ccccc3C2=O)CC1` [NAN-190], the Ki at D(2) dopamine receptor is 64 nM.
For the compound `O=C1C2CCCN2C(=O)N1CCCN1CCN(c2ccc(F)cc2)CC1` (centres undefined), the Ki in test [1] was over 1000 nM; at D(2) dopamine receptor, over 1000 nM; in test [2], 25.2 nM.
Turning to `O=C1C2CCCN2C(=O)N1CCCN1CCN(c2ccccc2)CC1` (centres undefined), the values for the Ki (in test [1]; at D(2) dopamine receptor; in test [2]) were 19.2 nM, over 1000 nM and 15.4 nM, respectively.
With `O=C1C2CCCCN2C(=O)N1CCCN1CCN(c2ccc([N+](=O)[O-])cc2)CC1` (centres undefined), the Ki in test [1] is over 10000 nM; at D(2) dopamine receptor, over 10000 nM; in test [2] it was over 1000 nM.
As to `O=C1C2CCCN2C(=O)N1CCN1CCN(c2cccc(Cl)c2)CC1` (centres undefined), the figures for the Ki (in test [1]; at D(2) dopamine receptor; in test [2]) were 418 nM, over 1000 nM and 500 nM, respectively.
On to `O=C1C2CCCCN2C(=O)N1CCN1CCN(c2ccccc2)CC1` (centres undefined), for which the Ki (in test [1]; on D(2) dopamine receptor; in test [2]) was over 1000 nM each time.
As to `O=C1C2CCCN2C(=O)N1CCCCN1CCN(c2cccc(C(F)(F)F)c2)CC1` (centres undefined), the Ki was 2.4 nM in test [1], over 1000 nM at D(2) dopamine receptor and 64.9 nM in test [2].
Turning to `COc1ccccc1N1CCN(CN2C(=O)C3CCCN3C2=O)CC1` (centres undefined), the results for the Ki (in test [1]; at D(2) dopamine receptor; in test [2]) were 34.9 nM, over 1000 nM and 500 nM, respectively.
The matching figures for `O=C1C2CCCN2C(=O)N1CCCN1CCN(c2cccc(C(F)(F)F)c2)CC1` (centres undefined): 3.8 nM, over 1000 nM and 109 nM.
Consider `O=C1C2CCCN2C(=O)N1CCCN1CCN(c2ccc([N+](=O)[O-])cc2)CC1` (centres undefined), for which the Ki was over 10000 nM in test [1], over 10000 nM at D(2) dopamine receptor and over 1000 nM in test [2].
With `O=C1C2CCCN2C(=O)N1CCCCN1CCN(c2cccc(Cl)c2)CC1` (centres undefined), the Ki in test [1] worked out at 11.3 nM; at D(2) dopamine receptor, 151 nM; in test [2], 9.6 nM.
For `COc1ccccc1N1CCN(CCCN2C(=O)C3CCCCN3C2=O)CC1` (centres undefined), the results for the Ki (in test [1]; on D(2) dopamine receptor; in test [2]) were 4.1 nM, over 1000 nM and 9.9 nM, respectively.
Consider `O=C1C2CCCN2C(=O)N1CCN1CCN(c2cccc(C(F)(F)F)c2)CC1` (centres undefined), for which the Ki in test [1] was 123 nM; at D(2) dopamine receptor, over 1000 nM; in test [2] it was over 1000 nM.
With `O=C1C2CCCCN2C(=O)N1CN1CCN(c2ccc([N+](=O)[O-])cc2)CC1` (centres undefined), the Ki is over 1000 nM in test [1], over 10000 nM on D(2) dopamine receptor and over 10000 nM in test [2].
Regarding `O=C1C2CCCCN2C(=O)N1CCN1CCN(c2cccc(C(F)(F)F)c2)CC1` (centres undefined), the Ki in test [1] is 65.8 nM; on D(2) dopamine receptor, over 1000 nM; in test [2], over 1000 nM.
As for `COc1ccccc1N1CCN(CCN2C(=O)C3CCCN3C2=O)CC1` (centres undefined), the values for the Ki (in test [1]; at D(2) dopamine receptor; in test [2]) were 234 nM, 361 nM and 190 nM, respectively.
In the case of `COc1ccccc1N1CCN(CCCCN2C(=O)C3CCCCN3C2=O)CC1` (centres undefined), the Ki was 8.8 nM in test [1], over 1000 nM at D(2) dopamine receptor and 8.6 nM in test [2].
`O=C1C2CCCCN2C(=O)N1CCCN1CCN(c2cccc(Cl)c2)CC1` (centres undefined): the inhibitory constant (Ki) was 53.6 nM in test [1], over 1000 nM at D(2) dopamine receptor and 17.9 nM in test [2].
Consider `O=C1C2CCCCN2C(=O)N1CCCCN1CCN(c2ccccc2)CC1` (centres undefined), for which the inhibitory constant (Ki) is over 1000 nM at D(2) dopamine receptor and 18.6 nM in test [2].
Turning to `O=C1C2CCCCN2C(=O)N1CCCN1CCN(c2ccccc2)CC1` (centres undefined), the inhibition constant Ki in test [1] was 154 nM; on D(2) dopamine receptor it was over 1000 nM; in test [2], 11.4 nM.
Turning to `O=C1C2CCCN2C(=O)N1CCN1CCN(c2ccc([N+](=O)[O-])cc2)CC1` (centres undefined), the Ki (in test [1]; on D(2) dopamine receptor; in test [2]) was over 10000 nM throughout.
As for `O=C1C2CCCN2C(=O)N1CN1CCN(c2ccccc2)CC1` (centres undefined), the Ki was 85.3 nM in test [1], over 10000 nM on D(2) dopamine receptor and 1000 nM in test [2].
For the compound `O=C1C2CCCCN2C(=O)N1CN1CCN(c2ccccc2)CC1` (centres undefined), the Ki in test [1] was 101 nM; at D(2) dopamine receptor, over 10000 nM; in test [2], over 1000 nM.
For the compound `O=C1C2CCCN2C(=O)N1CN1CCN(c2ccc(F)cc2)CC1` (centres undefined), the Ki in test [1] was 500 nM; on D(2) dopamine receptor, over 10000 nM; in test [2] it was over 1000 nM.
The corresponding values for `COc1ccccc1N1CCN(CCN2C(=O)C3CCCCN3C2=O)CC1` (centres undefined) are 45.5 nM, 246 nM and 131 nM.
Take `O=C1C2CCCN2C(=O)N1CN1CCN(c2ccc([N+](=O)[O-])cc2)CC1` (centres undefined): the Ki in test [1] was over 1000 nM; at D(2) dopamine receptor it was over 10000 nM; in test [2] it was over 10000 nM.
As to `O=C1C2CCCCN2C(=O)N1CN1CCN(c2cccc(Cl)c2)CC1` (centres undefined), the values for the Ki (in test [1]; on D(2) dopamine receptor; in test [2]) were 57.7 nM, over 10000 nM and 135 nM, respectively.
As to `O=C1C2CCCCN2C(=O)N1CCN1CCN(c2ccc(F)cc2)CC1` (centres undefined), the Ki in test [1] was over 10000 nM; on D(2) dopamine receptor, over 10000 nM; in test [2], over 1000 nM.
